Values quoted from earlier work as cited in patent US10543172B2, “Econazole composition and methods of treatment therewith” (PARAGON NORDIC AB, priority 2010, dated 2020).

Test system: dermatophytes and yeasts
Details: Liao et al., Yao Xue Xue Bao 28(1):22-7 (1993)

Clc1ccc(CO[C@@H](Cn2ccnc2)c2ccc(Cl)cc2Cl)cc1 [(R)-(−)-econazole]
antifungal activity of stereoisomer: greater antifungal activity
